Laboratory results as given in PMC4731787, “Structural basis for the recognition of two consecutive mutually interacting DPF motifs by the SGIP1 μ homology domain” (Scientific Reports, 2016).
Like-named read-outs stand apart in the source and are kept apart here. Each block holds one molecule with its values, some of them ahead of it. GST = glutathione S-transferase fusion tag

Key:
[1] = target: T1, SGIP1 μHD (residues 552 to 828) (Homo sapiens, UniProt Q9BQI5); assay: ITC of Eps15 fragments with the SGIP1 μHD; assay type: binding; conditions: for Kd: 50 mM Tris-HCl pH 8.0, 50 mM NaCl, global fit of two runs
T1 construct: the SGIP1 μHD (residues 552 to 828); GST (N, cleaved yes); made in house; host or cells: Escherichia coli BL21-Gold (DE3) or Rosetta2
T1 sequence (Q9BQI5 552-828): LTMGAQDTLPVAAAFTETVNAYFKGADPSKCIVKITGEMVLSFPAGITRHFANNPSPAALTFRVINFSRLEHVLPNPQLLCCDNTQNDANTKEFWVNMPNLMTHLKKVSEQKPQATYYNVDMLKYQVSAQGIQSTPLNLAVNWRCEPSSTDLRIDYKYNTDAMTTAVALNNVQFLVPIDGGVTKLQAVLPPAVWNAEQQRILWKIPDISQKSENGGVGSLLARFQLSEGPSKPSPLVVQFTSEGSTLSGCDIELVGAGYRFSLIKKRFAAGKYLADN
Description: For the majority of the ITC experiments, the SGIP1 μHD, its mutants, or the FCHo1 μHD, in 50 mM Tris-HCl buffer (pH 8.0) containing 50 mM NaCl, was loaded in the sample cell, in a volume of 1.42 ml, and titrated with various Eps15-derived fragments or peptides in the same buffer, with an initial 5 μl injection and subsequent 10 μl injections, for a total of 25 injections. The titrations were performed while the samples were stirred at 310 r.p.m. at 25 °C. Each injection was followed by an interval of 4 min, to allow baseline stabilization. For the other ITC experiments indicated in Supplementary Table 2, the Eps15-derived fragments or peptides in the sample cell were titrated with the SGIP1 or FCHo1 μHD. All ITC experiments were performed on a VP-ITC microcalorimeter (MicroCal, LLC) and repeated twice, and the data were processed with the program NITPIC[42]. The two data sets from each ITC experiment were analyzed by global weighted least-squares fitting with the program SEDPHAT[43]. Figures for the ITC data were created with the program GUSSI (http://biophysics.swmed.edu/MBR/software.html). To obtain the values of the traditional stoichiometric parameter N in our ITC data analyses (Supplementary Table 2), we used the values of the parameters of the incompetent fractions of proteins and ligands. […] The values of the incompetent fractions are between 0 and 1, whereas the other parameter affecting the traditional parameter N, the number of sites, was fixed as 1 and 2, for the single- and two-site models, respectively. Thus, in the two-site model, the values of N for the first and second sites are identical in our ITC data analyses (Supplementary Table 2).

[2] = target: T2, SGIP1 µ homology domain (µHD), residues 552 to 828 (human, UniProt Q9BQI5-1 552-828); assay: ITC; µHD, µHD mutant or α-adaptin appendage domain in the sample cell, titrated with the Eps15 fragment or peptide; 50 mM Tris-HCl (pH 8.0), 50 mM NaCl, 25 °C; VP-ITC; two data sets fitted globally (NITPIC, SEDPHAT); single-site model; conditions: both partners purified
T2 construct: pGEX-6P-1 construct cut with 3C protease; also called SGIP1 µHD; human SGIP1 µHD (aa552–828); source: E. coli BL21-Gold (DE3) or Rosetta2, purified (Glutathione Sepharose 4B, 3C protease cleavage, Superdex 200)
T2 sequence (looked up): T1 sequence (Q9BQI5 552-828)

[3] = 25 °C, μHD in cell titrated with fragment, single-site model
[4] = 25 °C, μHD in cell titrated with fragment, single-site model, ± 68.3% confidence interval
[5] = μHD in cell titrated with fragment, single-site model, ± 68.3% confidence interval
[6] = 25 °C, μHD in sample cell titrated with Eps15 fragment, single-site model, ± 68.3% confidence interval
[7] = 25 °C, fragment in cell titrated with μHD, two-site model, first site
[8] = 25 °C, fragment in cell titrated with μHD, two-site model, second site

Molecule: Ac-YEPFGGDPFKG-NH2 [Eps15-640–649D640E]
-TΔS [1, 3]: -0.851 kcal/mol | ΔG [1, 3]: -4.759 kcal/mol | ΔH [1, 4]: -3.908 ± 0.595 kcal/mol

Molecule: Ac-YKDDPFGKIDPFGG-NH2 [Eps15-632–644]
-TΔS [1, 3]: -0.071 kcal/mol | ΔG [1, 3]: -5.584 kcal/mol | ΔH [1, 4]: -5.513 ± 0.12 kcal/mol

Molecule: Ac-YKDDPFGKIDPFGGDPFKGSDPFA-NH2 [Eps15-632–654]
-TΔS [1, 3]: 1.453 kcal/mol | ΔG [1, 3]: -7.491 kcal/mol | ΔH [1, 4]: -8.944 ± 0.142 kcal/mol | N (binding ratio of Eps15 fragment to μHD) [1, 5]: 0.70 ± 0.01

Molecule: Ac-YNPFGGDPFKG-NH2 [Eps15-640–649D640N]
-TΔS [1, 3]: -0.585 kcal/mol | ΔG [1, 3]: -5.441 kcal/mol | ΔH [1, 4]: -4.856 ± 0.193 kcal/mol

Molecule: Ac-YSDPFKDDPFGKI-NH2 [Eps15-628–639]
-TΔS [1, 3]: 1.528 kcal/mol | ΔG [1, 3]: -4.882 kcal/mol | ΔH [1, 4]: -6.41 ± 0.646 kcal/mol

Molecule: Ac-YSDPFKDDPFGKIDPFGG-NH2 [Eps15-628–644]
binding to the SGIP1 μHD (in words) [1]: significantly weaker affinity than Eps15-622–637 and Eps15-640–654 | -TΔS [1, 3]: 1.615 kcal/mol | ΔG [1, 3]: -6.404 kcal/mol | ΔH [1, 4]: -8.019 ± 0.169 kcal/mol | N (binding ratio of Eps15 fragment to μHD) [1, 5]: 0.76 ± 0.01

Molecule: Ac-YSDPFKDDPFGKIDPFGGDPFKGSDPFA-NH2 [Eps15-628–654]
Kd ([1]; 25 °C, μHD in sample cell titrated with Eps15 fragment, single-site model, ± 68.3% confidence interval, read-out: Kd): 1.1 ± 0.1 µM | -TΔS [1, 3]: 1.711 kcal/mol | ΔG [1, 3]: -8.135 kcal/mol | ΔH [1, 4]: -9.846 ± 0.223 kcal/mol | N (binding ratio of Eps15 fragment to μHD) [1, 5]: 0.67 ± 0.01

Molecule: Ac-YSDPFVGSDPFKDDPFG-NH2 [Eps15-622–637]
binding to the SGIP1 μHD (in words) [1]: significantly reduced affinity as compared with that of Eps15-530–896 | -TΔS [1, 3]: 1.967 kcal/mol | ΔG [1, 3]: -7.247 kcal/mol | ΔH [1, 4]: -9.214 ± 0.138 kcal/mol | N (binding ratio of Eps15 fragment to μHD) [1, 5]: 0.85 ± 0.01

Molecule: Eps15-618–648: Eps15 fragment containing the first five DPF motifs of Eps15-618–654 (DFFQSDPFVGSDPFKDDPFGKIDPFGGDPFK; UniProt P42566 618-648, looked up, fragment)
-TΔS [1, 3]: 0.581 kcal/mol | ΔG [1, 3]: -8.722 kcal/mol | ΔH [1, 4]: -9.303 ± 0.257 kcal/mol | N (binding ratio of Eps15 fragment to μHD) [1, 5]: 0.71± 0.02

B2: Eps15-632–654 (peptide)
peptide: Ac-YKDDPFGKIDPFGGDPFKGSDPFA-NH2
notes: artificial N-terminal Tyr; source: synthetic peptide (Eurofins Genomics)
Kd [2]: 3.2 µM | stoichiometry N [2]: 0.7

B3: Eps15-622–637 (peptide)
peptide: Ac-YSDPFVGSDPFKDDPFG-NH2
notes: as for B2
Kd [2]: 4.9 µM | stoichiometry N [2]: 0.85

B4: Eps15-628–644 (peptide)
peptide: Ac-YSDPFKDDPFGKIDPFGG-NH2
notes: as for B2
Kd [2]: 20.2 µM | stoichiometry N [2]: 0.76

B7: Eps15-640–649 (peptide)
peptide: Ac-YDPFGGDPFKG-NH2
notes: extra (artificial) N-terminal Tyr residue, to facilitate the concentration determination by absorbance; source: synthetic peptide (Eurofins Genomics)
Kd [2]: 30.2 µM | stoichiometry N [2]: 0.66

B8: Eps15-640–649D640E (peptide)
peptide: Ac-YEPFGGDPFKG-NH2
notes: as for B2
Kd [2]: 325 µM

B9: Eps15-640–649D640N (peptide)
peptide: Ac-YNPFGGDPFKG-NH2
notes: as for B2
Kd [2]: 103 µM

B12: Eps15-628–639 (peptide)
peptide: Ac-YSDPFKDDPFGKI-NH2
notes: as for B2
Kd [2]: 264 µM

B13: Eps15-618–648 (domain or fragment, human)
chain: GPLGSYDFFQSDPFVGSDPFKDDPFGKIDPFGGDPFK
notes: source: E. coli, expressed and purified in the same manner as the SGIP1 µHD
stoichiometry N [2]: 0.71

B14: Eps15-632–644 (peptide)
peptide: Ac-YKDDPFGKIDPFGG-NH2
notes: artificial N-terminal Tyr; human Eps15 residues 632-644; source: synthetic peptide (Eurofins Genomics)
Kd [2]: 80.8 µM

Second part, the molecule after the results:

-TΔS [1, 3]: -1.138 kcal/mol | ΔG [1, 3]: -5.642 kcal/mol | ΔH [1, 4]: -4.504 ± 0.155 kcal/mol
Molecule: Ac-YDPFGGNPFKG-NH2 [Eps15-640–649D645N]

-TΔS [1, 3]: 3.566 kcal/mol | ΔG [1, 3]: -6.344 kcal/mol | ΔH [1, 4]: -9.91 ± 0.683 kcal/mol | N (binding ratio of Eps15 fragment to μHD) [1, 5]: 0.75 ± 0.02
Molecule: Ac-YDPFKGSDPFA-NH2 [Eps15-645–654]

-TΔS [1, 3]: 2.227 kcal/mol | ΔG [1, 3]: -4.965 kcal/mol | ΔH [1, 4]: -7.192 ± 0.527 kcal/mol
Molecule: Ac-YDPWGGDPFKG-NH2 [Eps15-640–649F642W]

binding to the SGIP1 μHD (in words) [1]: weakly bound to the μHD | -TΔS [1, 3]: 1.395 kcal/mol | ΔG [1, 3]: -5.327 kcal/mol | ΔH [1, 4]: -6.722 ± 1.053 kcal/mol | Strength of affinity ([1]; human SGIP1 µHD (aa552–828), Supplementary Table 3, This study): low
Molecule: Ac-YSTDPFATSSTDPFSA-NH2 [Eps15-662–676]

Kd [1, 6]: below detection limit
Molecule: Eps15-640–649D645E: D645E mutant of Eps15-640–649 (Ac-YDPFGGEPFKG-NH2)

Kd [1, 6]: below detection limit
Molecule: Eps15-640–649F647W: F647W mutant of Eps15-640–649 (Ac-YDPFGGDPWKG-NH2)

Kd [1, 6]: below detection limit
Molecule: Eps15-640–649P641L: P641L mutant of Eps15-640–649 (Ac-YDLFGGDPFKG-NH2)

Kd [1, 6]: below detection limit
Molecule: Eps15-640–649P646L: P646L mutant of Eps15-640–649 (Ac-YDPFGGDLFKG-NH2)

Kd [1, 6]: below detection limit
Molecule: Eps15-643–650: Eps15 fragment, residues 643–650, 1 DPF motif (Ac-YGGDPFKGS-NH2)

Kd [1, 6]: below detection limit
Molecule: Eps15-650–659: Eps15 fragment, residues 650–659, 1 DPF motif (Ac-YSDPFASDCFF-NH2)

binding to the SGIP1 μHD (in words) [1]: did not | Kd [1, 6]: below detection limit
Molecule: Eps15-797–807: Eps15 fragment spanning residues 797 to 807, 2 DPF motifs (Ac-YPDPFKLNDPFQ-NH2)

Kd [1, 6]: below detection limit
B1: GST-Eps15-530–594: GST-tagged Eps15 fragment, residues 530–594, 0 DPF motifs (protein)
chain: {GST}-STSSSETANLNEHVEGQSNLESEPIHQESPARSSPELLPSGVTDENEVTTAVTEKVCSELDNNRH

Kd [2]: 22.4 µM | stoichiometry N [2]: 0.75
B5: Eps15-645–654 (peptide)
peptide: Ac-YDPFKGSDPFA-NH2
notes: as for B7

Kd ([1]; 25 °C, Eps15 fragment in cell titrated with SGIP1 μHD, two-site model, first (higher-affinity) site, ± 68.3% confidence interval, read-out: Kd): 0.046 ± 0.015 µM | Kd ([1]; 25 °C, Eps15 fragment in cell titrated with SGIP1 μHD, two-site model, second site, 68.3% confidence interval, read-out: Kd, second site): 16.6 ± 4.1 µM | -TΔS [1, 7]: -2.45 kcal/mol | ΔG [1, 7]: -10.012 kcal/mol | ΔH ([1]; 25 °C, fragment in cell titrated with μHD, two-site model, first site, ± 68.3% confidence interval): -7.562 ± 0.103 kcal/mol | -TΔS, second site [1, 8]: 0.328 kcal/mol | ΔG, second site [1, 8]: -6.52 kcal/mol | ΔH, second site ([1]; 25 °C, fragment in cell titrated with μHD, two-site model, second site, 68.3% confidence interval): -6.848 ± 0.772 kcal/mol | N (binding ratio of Eps15 fragment to μHD) ([1]; fragment in cell titrated with μHD, two-site model, first site (N identical for both sites), ± 68.3% confidence interval): 1.17 ± 0.02 | N, second site ([1]; fragment in cell titrated with μHD, two-site model, second site (N identical for both sites), ± 68.3% confidence interval): 1.17 ± 0.02
B6: GST-Eps15-595–660: GST-tagged Eps15 fragment, residues 595–660, 7 DPF motifs (protein, UniProt P42566 595-660, looked up, fragment)
chain: {GST}-SKEEDPFNVDSSSLTGPVADTNLDFFQSDPFVGSDPFKDDPFGKIDPFGGDPFKGSDPFASDCFFR

Kd [2]: 73.1 µM
B10: Eps15-640–649D645N (peptide)
peptide: Ac-YDPFGGNPFKG-NH2
notes: as for B2

Kd [2]: 229 µM
B11: Eps15-640–649F642W (peptide)
peptide: Ac-YDPWGGDPFKG-NH2
notes: as for B2
